Data on eleven molecules can be found in patent US10329289B2, “6,7-dihydro-5H-pyrrolo[3,4-B]pyridin-5-one allosteric modulators of the M4 muscarinic acetylcholine receptor” (Merck Sharp & Dohme Corp., priority 2015, dated 2019).

pEC50: −log10 of the molar value.

The assay addresses T1, human M4 muscarinic acetylcholine receptor (Homo sapiens, UniProt P08173).
T1 construct: expressed in transfected cells; host or cells: CHO-K1
T1 sequence (P08173 1-479): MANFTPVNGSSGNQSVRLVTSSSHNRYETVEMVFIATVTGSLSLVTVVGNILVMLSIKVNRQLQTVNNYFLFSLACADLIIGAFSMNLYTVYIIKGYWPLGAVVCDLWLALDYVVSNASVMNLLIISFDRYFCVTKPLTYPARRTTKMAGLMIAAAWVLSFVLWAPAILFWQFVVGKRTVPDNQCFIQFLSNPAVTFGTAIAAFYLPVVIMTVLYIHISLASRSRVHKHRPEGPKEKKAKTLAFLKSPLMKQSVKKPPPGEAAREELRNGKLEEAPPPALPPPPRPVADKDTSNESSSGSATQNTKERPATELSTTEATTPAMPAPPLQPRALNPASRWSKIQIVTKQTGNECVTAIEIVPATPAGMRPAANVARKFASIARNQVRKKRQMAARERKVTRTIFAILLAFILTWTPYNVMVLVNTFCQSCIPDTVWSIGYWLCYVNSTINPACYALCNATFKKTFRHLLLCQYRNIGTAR
The assay can be described thus: human FLIPR-based M4 PAM assay (Ca2+ mobilization, CHO-K1 cells with human M4 receptor and Gαqi5). Conditions: acetylcholine at 20% of maximum response, read-out: M4 PAM IP. It is filed as cell-based. In outline: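 Calcium-mobilization (FLIPR) readout in dye-loaded CHO-K1 cells co-expressing human M4 receptor and Gαqi5. Potentiation measured against acetylcholine at a concentration giving 20% of maximal response, with an optional 70% addition; the reported value is the curve inflection point from a 4-parameter logistic fit.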
(In general: A change in cytosolic calcium serves as a functional read-out for many receptors and channels.)
Turning to `CCN1Cc2nc(N3CCC(Oc4ccc5c(c4)COC5)CC3)c(C)cc2C1=O` [Example 244A, 2-(4-((1,3-dihydro-2-benzofuran-5-yl)oxy)piperidin-1-yl)-6-ethyl-3-methyl-6,7-dihydro-5H-pyrrolo[3,4-b]pyridin-5-one], the pEC50 was 7.55. For the molecule `Cc1c(N2CCC(Oc3ccc4c(c3)CCOC4)CC2)nc2c(c1C)C(=O)NC2` [Example 336, 2-(4-(isochroman-6-yloxy)piperidin-1-yl)-3,4-dimethyl-6,7-dihydro-5H-pyrrolo[3,4-b]pyridin-5-one], the pEC50 was 6.74.

In the case of `CCc1c(C)c(N2CCC(Oc3ccc(OC)nc3)CC2)nc2c1C(=O)NC2` [Example 229A, 4-ethyl-2-(4-((6-methoxypyridin-3-yl)oxy)piperidin-1-yl)-3-methyl-6,7-dihydro-5H-pyrrolo[3,4-b]pyridin-5-one], the pEC50 was 6.22. Regarding `Cc1cc2c(nc1N1CC[C@@H](Oc3ccc4c(c3)COC4)[C@H](F)C1)CN(CCO)C2=O` [Example 257, 2-((3R,4R)-4-((1,3-dihydro-2-benzofuran-5-yl)oxy)-3-fluoropiperidin-1-yl)-6-(2-hydroxyethyl)-3-methyl-6,7-dihydro-5H-pyrrolo[3,4-b]pyridin-5-one], the pEC50 was 7.08.

`Cc1c(N2CC[C@H](Oc3cnn(C)c3)C(F)(F)C2)nc2c(c1C)C(=O)NC2` [Example 336C, (S)-2-(3,3-difluoro-4-((l-methyl-1H-pyrazol-4-yl)oxy)piperidin-1-yl)-3,4-dimethyl-6,7-dihydro-5H-pyrrolo[3,4-b]pyridin-5-one]: the pEC50 is 7.48. In the case of `Cc1cc2c(nc1N1CCC(OC[C@@]3(C)CC3(F)F)CC1)CNC2=O` [Example 8A, (R)-2-(4-((2,2-difluoro-1-methylcyclopropyl)methoxy)piperidin-1-yl)-3-methyl-6,7-dihydro-5H-pyrrolo[3,4-b]pyridin-5-one], the pEC50 is 7.06. With `COc1ccc(OC2CCN(c3nc4c(cc3C)C(=O)N(CCO)C4CO)CC2)cn1` (centres unmarked) [Example 375, 6-(2-Hydroxyethyl)-7-(hydroxymethyl)-2-(4-((6-methoxypyridin-3-yl)oxy)piperidin-1-yl)-3-methyl-6,7-dihydro-5H-pyrrolo[3,4-b]pyridin-5-one], the pEC50 was 7.16.

As to `Cc1cc2c(nc1N1CCC(OCC3CCOC3)CC1)CNC2=O` (centres unmarked) [Example 177, 3-methyl-2-(4-((tetrahydrofuran-3-yl)methoxy)piperidin-1-yl)-6,7-dihydro-5H-pyrrolo[3,4-b]pyridin-5-one], the pEC50 is 5.74. For `Cc1c(N2CCC(Oc3ccc4c(c3)COCC4)CC2)nc2c(c1C)C(=O)N(C)[C@@H]2CO` (single isomer, unassigned) [Example 337C] the value was 7.38; for `Cc1cc2c(nc1N1CCC(OC(F)F)CC1)CNC2=O` [Example 4A, 2-(4-(difluoromethoxy)piperidin-1-yl)-3-methyl-6,7-dihydro-5H-pyrrolo[3,4-b]pyridin-5-one], 5.56; for `Cc1cc2c(nc1N1CCC(Oc3ccc(O[C@@H](C)CO)nc3)CC1)CNC2=O` (single isomer, unassigned) [Example 141B], 7.26.
